Here are results for 26 molecules from patent publication US20250074891A1 (Anaxis Pharma Pty Ltd., priority 2021, published 2025).

Conditions in all cases: Table 35
Assay [1] has as its target RIP3 (Homo sapiens (Human), UniProt Q9Y572). Description: KINOMEscan binding assay, RIP3. As for the experimental part:
(§1) Kinase assays. For most assays, kinase-tagged T7 phage strains were grown in parallel in 24-well blocks in an E. coli host derived from the BL21 strain. E. coli were grown to log-phase and infected with T7 phage from a frozen stock (multiplicity of infection=0.4) and incubated with shaking at 32° C. until lysis (90-150 minutes).
(§2) The Hill Slope was set to −1.

Assay [2] has as its target MLKL (full length) (Homo sapiens (Human), UniProt Q8NB16). Description: KINOMEscan binding assay, MLKL (full length). How it is done: as §1, §2
Assay [3] addresses RIP1 (Homo sapiens (Human), UniProt Q13546). Description: KINOMEscan binding assay, RIP1.

Some results are limits rather than exact numbers.

Chain of MLKL (full length) (Q8NB16 whole entry): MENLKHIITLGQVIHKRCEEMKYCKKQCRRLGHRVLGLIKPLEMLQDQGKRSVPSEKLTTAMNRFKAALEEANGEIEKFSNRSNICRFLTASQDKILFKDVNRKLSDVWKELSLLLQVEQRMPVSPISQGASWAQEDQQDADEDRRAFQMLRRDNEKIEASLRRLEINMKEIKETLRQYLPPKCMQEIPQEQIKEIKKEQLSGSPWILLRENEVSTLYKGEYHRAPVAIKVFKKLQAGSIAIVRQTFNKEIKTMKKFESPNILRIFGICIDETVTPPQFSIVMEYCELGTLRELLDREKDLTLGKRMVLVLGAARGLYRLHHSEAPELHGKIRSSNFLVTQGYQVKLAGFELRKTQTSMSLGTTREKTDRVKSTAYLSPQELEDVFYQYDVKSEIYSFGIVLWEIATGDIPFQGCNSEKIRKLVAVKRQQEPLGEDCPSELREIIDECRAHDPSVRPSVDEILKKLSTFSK
Chain of RIP3 (Q9Y572 whole entry): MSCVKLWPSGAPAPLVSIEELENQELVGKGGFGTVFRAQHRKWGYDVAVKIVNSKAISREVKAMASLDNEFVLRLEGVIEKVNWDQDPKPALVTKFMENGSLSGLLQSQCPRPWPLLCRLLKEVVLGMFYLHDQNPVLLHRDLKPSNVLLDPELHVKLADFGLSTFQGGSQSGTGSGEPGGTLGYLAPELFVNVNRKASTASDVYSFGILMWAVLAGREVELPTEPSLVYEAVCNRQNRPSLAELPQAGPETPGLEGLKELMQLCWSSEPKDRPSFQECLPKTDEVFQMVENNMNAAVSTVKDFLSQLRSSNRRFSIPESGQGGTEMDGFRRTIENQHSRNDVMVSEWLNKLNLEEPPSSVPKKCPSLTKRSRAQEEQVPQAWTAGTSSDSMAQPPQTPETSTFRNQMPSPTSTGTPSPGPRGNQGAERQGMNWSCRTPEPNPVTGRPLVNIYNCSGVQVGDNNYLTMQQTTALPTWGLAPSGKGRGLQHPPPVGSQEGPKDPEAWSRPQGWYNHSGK
Chain of RIP1 (Q13546 whole entry): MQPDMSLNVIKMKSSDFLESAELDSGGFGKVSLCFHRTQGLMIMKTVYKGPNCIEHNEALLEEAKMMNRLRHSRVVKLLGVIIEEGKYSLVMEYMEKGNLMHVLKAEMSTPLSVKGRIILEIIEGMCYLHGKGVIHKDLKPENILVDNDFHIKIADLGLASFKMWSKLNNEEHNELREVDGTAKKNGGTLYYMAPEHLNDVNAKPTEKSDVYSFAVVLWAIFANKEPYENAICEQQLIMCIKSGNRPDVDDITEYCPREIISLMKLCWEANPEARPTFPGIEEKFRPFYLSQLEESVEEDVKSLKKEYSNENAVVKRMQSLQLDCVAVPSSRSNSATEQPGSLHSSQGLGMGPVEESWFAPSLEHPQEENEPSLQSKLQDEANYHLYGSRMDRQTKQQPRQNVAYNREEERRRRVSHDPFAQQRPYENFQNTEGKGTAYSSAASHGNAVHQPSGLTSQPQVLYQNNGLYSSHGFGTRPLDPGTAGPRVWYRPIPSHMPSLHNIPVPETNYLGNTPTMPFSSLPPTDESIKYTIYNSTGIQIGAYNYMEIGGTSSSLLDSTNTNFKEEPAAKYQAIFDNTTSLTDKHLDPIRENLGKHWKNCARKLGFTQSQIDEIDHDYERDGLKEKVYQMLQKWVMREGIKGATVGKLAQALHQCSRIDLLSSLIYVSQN

As to `CCS(=O)(=O)Nc1ccc(-c2n[nH]c(Nc3cnccn3)c2C(N)=O)c(OCc2ccc(F)cc2)c1` [Compound 21, 3-(4-(ethylsulfonamido)-2-((4-fluorobenzyl)oxy)phenyl)-5-(pyrazin-2-ylamino)-1H-pyrazole-4-carboxamide], the Kd in assay [1] was greater than 30 µM; in assay [2], less than 0.01 µM; in assay [3] it was greater than 30 µM.
Consider `NC(=O)c1c(-c2ccc(NS(=O)(=O)CCC(F)F)cc2)n[nH]c1Nc1cnccn1` [Compound 23, 3-(4-((3,3-difluoropropyl)sulfonamido)phenyl)-5-(pyrazin-2-ylamino)-1H-pyrazole-4-carboxamide], for which the Kd in assay [1] is greater than 30 µM; in assay [2], less than 0.01 µM; in assay [3] it was greater than 30 µM.
As for `CCS(=O)(=O)Nc1ccc(-c2n[nH]c(Nc3cnccn3)c2C(N)=O)cc1OCCc1ccc(F)cc1` [Compound 24], the Kd was greater than 30 µM in assay [1], less than 0.01 µM in assay [2] and greater than 30 µM in assay [3].
As for `CCS(=O)(=O)Nc1ccc(-c2n[nH]c(Nc3cnccn3)c2C(N)=O)cc1OCc1ccccc1` [Compound 25, 3-(3-(benzyloxy)-4-(ethylsulfonamido)phenyl)-5-(pyrazin-2-ylamino)-1H-pyrazole-4-carboxamide], the Kd in assay [1] was greater than 30 µM; in assay [2], less than 0.01 µM; in assay [3], greater than 30 µM.
In the case of `CCS(=O)(=O)Nc1ccc(-c2n[nH]c(Nc3cnccn3)c2C(N)=O)cc1OCc1cccc(F)c1` [Compound 26, 3-(4-(ethylsulfonamido)-3-((3-fluorobenzyl)oxy)phenyl)-5-(pyrazin-2-ylamino)-1H-pyrazole-4-carboxamide], the Kd in assay [1] was greater than 30 µM; in assay [2], less than 0.01 µM; in assay [3], greater than 30 µM.
With `CCS(=O)(=O)Nc1ccc(-c2n[nH]c(Nc3ccccn3)c2C(N)=O)cc1OCc1ccncc1` [Compound 27, 3-(4-(ethylsulfon-amido)-3-(pyridin-4-ylmethoxy)phenyl)-5-(pyridin-2-ylamino)-1H-pyrazole-4-carboxamide], the Kd in assay [1] is greater than 30 µM; in assay [2], less than 0.01 µM; in assay [3], greater than 30 µM.
On to `CCS(=O)(=O)Nc1ccc(-c2n[nH]c(Nc3cnccn3)c2C(N)=O)cc1OCc1ccncc1` [Compound 28, 3-(4-(ethylsulfonamido)-3-(226yridine-4-ylmethoxy)phenyl)-5-(pyrazin-2-ylamino)-1H-pyrazole-4-carboxamide], for which the Kd is greater than 30 µM in assay [1], less than 0.01 µM in assay [2] and greater than 30 µM in assay [3].
As to `N#CCS(=O)(=O)Nc1ccc(-c2n[nH]c(Nc3cccc(C(F)(F)F)n3)c2C(N)=O)cc1` [Compound 29, 3-(4-((cyanomethyl)sulfonamido)phenyl)-5-((6-(trifluoromethyl)pyridin-2-yl)amino)-1H-pyrazole-4-carboxamide], the Kd in assay [1] was greater than 30 µM; in assay [2], less than 0.01 µM; in assay [3], greater than 30 µM.
For the molecule `CCS(=O)(=O)Nc1ccc(-c2n[nH]c(Nc3ccccn3)c2C(N)=O)cc1OCc1ccc(F)cc1` [Compound 30, 3-(4-(ethylsulfon-amido)-3-((4-fluorobenzyl)oxy)phenyl)-5-(pyridin-2-ylamino)-1H-pyrazole-4-carboxamide], the values for the Kd in assay [1], in assay [2] and in assay [3] were greater than 30 µM, less than 0.01 µM and greater than 30 µM, respectively.
As for `CCS(=O)(=O)Nc1ccc(-c2n[nH]c(Nc3ccccn3)c2C(N)=O)cc1OCc1cccnc1` [Compound 31, 3-(4-(ethylsulfon-amido)-3-(pyridin-3-ylmethoxy)phenyl)-5-(pyridin-2-ylamino)-1H-pyrazole-4-carboxamide], the Kd in assay [1] was greater than 30 µM; in assay [2], less than 0.01 µM; in assay [3], greater than 30 µM.
In the case of `CCS(=O)(=O)Nc1ccc(-c2n[nH]c(Nc3cnccn3)c2C(N)=O)cc1OCc1cccnc1` [Compound 32, 3-(4-(ethylsulfonamido)-3-(226yridine-3-ylmethoxy)phenyl)-5-(pyrazin-2-ylamino)-1H-pyrazole-4-carboxamide], the Kd in assay [1] is greater than 30 µM; in assay [2], less than 0.01 µM; in assay [3], greater than 30 µM.
As to `CCS(=O)(=O)Nc1ccc(-c2n[nH]c(Nc3cnc(C(C)C)cn3)c2C(N)=O)cc1OCc1ccc(F)cc1` [Compound 34, 3-(4-(ethylsulfonamido)-3-((4-fluorobenzyl)oxy)phenyl) 5-((5-isopropylpyrazin-2-yl)amino)-1H-pyrazole-4-carboxamide], the Kd is greater than 30 µM in assay [1], less than 0.01 µM in assay [2] and greater than 30 µM in assay [3].
Consider `CCS(=O)(=O)Nc1ccc(-c2n[nH]c(Nc3cnccn3)c2C(N)=O)cc1OCC1CCCC1` [Compound 40, 3-(3-(cyclopentyl-methoxy)-4-(ethylsulfonamido)phenyl)-5-(pyrazin-2-ylamino)-1H-pyrazole-4-carboxamide], for which the Kd in assay [1] is greater than 30 µM; in assay [2] it was less than 0.01 µM; in assay [3], greater than 30 µM.
As to `CCS(=O)(=O)Nc1ccc(-c2n[nH]c(Nc3cnccn3)c2C(N)=O)cc1OCc1cccc(Cl)c1` [Compound 41, 3-(3-((3-chlorobenzyl)oxy)-4-(ethylsulfonamido)phenyl)-5-(pyrazin-2-ylamino)-1H-pyrazole-4-carboxamide], the Kd is greater than 30 µM in assay [1], less than 0.01 µM in assay [2] and greater than 30 µM in assay [3].
Regarding `CCS(=O)(=O)Nc1ccc(-c2n[nH]c(Nc3cnccn3)c2C(N)=O)cc1OCc1ccc(Cl)cc1` [Compound 42, 3-(3-((4-chlorobenzyl)oxy)-4-(ethylsulfonamido)phenyl)-5-(pyrazin-2-ylamino)-1H-pyrazole-4-carboxamide], the Kd in assay [1] was greater than 30 µM; in assay [2], less than 0.01 µM; in assay [3], greater than 30 µM.
For the molecule `CCS(=O)(=O)Nc1ccc(-c2n[nH]c(Nc3cnccn3)c2C(N)=O)cc1OCC1CCCCC1` [Compound 47, 3-(3-(cyclohexyl-methoxy)-4-(ethylsulfonamido)phenyl)-5-(pyrazin-2-ylamino)-1H-pyrazole-4-carboxamide], the values for the Kd in assay [1], in assay [2] and in assay [3] were greater than 30 µM, less than 0.01 µM and greater than 30 µM, respectively.
`NC(=O)c1c(-c2ccc(NS(=O)(=O)C(F)F)cc2)n[nH]c1Nc1ccccn1` [Compound 48, 3-(4-((difluoromethyl)sulfonamido)phenyl)-5-(pyridin-2-ylamino)-1H-pyrazole-4-carboxamide]: the figures for the Kd in assay [1], in assay [2] and in assay [3] were greater than 30 µM, less than 0.01 µM and greater than 30 µM, respectively.
For `CCS(=O)(=O)Nc1ccc(-c2n[nH]c(Nc3cnccn3)c2C(N)=O)cc1OCc1ccc(F)cc1` [Compound 62, 3-(4-(ethylsulfonamido)-3-((4-fluorobenzyl)oxy)phenyl) 5-(pyrazin-2-ylamino)-1H pyrazole-4-carboxamide], the dissociation constant (Kd) in assay [1] was greater than 30 µM; in assay [2], less than 0.01 µM; in assay [3], greater than 30 µM.
On to `NC(=O)c1c(-c2ccc(NS(=O)(=O)C(F)F)cc2)n[nH]c1Nc1cnccn1` [Compound 63, 3-(4-((difluoromethyl)sulfonamido)phenyl)-5-(pyrazin-2-ylamino)-1H-pyrazole-4-carboxamide], for which the figures for the Kd in assay [1], in assay [2] and in assay [3] were greater than 30 µM, less than 0.01 µM and greater than 30 µM, respectively.
As to `CCS(=O)(=O)Nc1ccc(-c2n[nH]c(Nc3cnc4ccccc4n3)c2C(N)=O)cc1` [Compound 67, 3-(4-(ethylsulfonamido)phenyl)-5-(quinoxalin-2-ylamino)-1H-pyrazole-4-carboxamide], the values for the Kd in assay [1], in assay [2] and in assay [3] were greater than 30 µM, less than 0.01 µM and greater than 30 µM, respectively.
Turning to `NC(=O)c1c(-c2ccc(NS(=O)(=O)C3CC3)cc2)n[nH]c1Nc1cnccn1` [Compound 68, 3-(4-(cyclopropanesulfonamido)phenyl)-5-(pyrazin-2-ylamino)-1H-pyrazole-4-carboxamide], the dissociation constant (Kd) in assay [1] was greater than 30 µM; in assay [2], less than 0.01 µM; in assay [3], greater than 30 µM.
For `NC(=O)c1c(-c2ccc(NS(=O)(=O)Cc3ccc(Cl)cc3)cc2)n[nH]c1Nc1cnccn1` [Compound 70, 3-(4-(((4-chlorophenyl)methyl)sulfonamido)phenyl)-5-(pyrazin-2-ylamino)-1H-pyrazole-4-carboxamide], the Kd in assay [1] is greater than 30 µM; in assay [2], less than 0.01 µM; in assay [3], greater than 30 µM.
On to `CCS(=O)(=O)Nc1ccc(-c2n[nH]c(Nc3cnc(C(F)(F)F)cn3)c2C(N)=O)cc1` [Compound 75, 3-(4-ethanesulfonamidophenyl)-5-{[5-(trifluoromethyl)pyrazin-2-yl]amino}-1H-pyrazole-4-carboxamide], for which the Kd in assay [1] is greater than 30 µM; in assay [2] it was less than 0.01 µM; in assay [3], greater than 30 µM.
Regarding `CCS(=O)(=O)Nc1ccc(-c2n[nH]c(Nc3cc4ccccc4cn3)c2C(N)=O)cc1` [Compound 87, 3-(4-(ethylsulfonamido)phenyl)-5-(isoquinolin-3-ylamino)-1H-pyrazole-4-carboxamide], the Kd in assay [1] is greater than 30 µM; in assay [2], less than 0.01 µM; in assay [3], greater than 30 µM.
Regarding `CCS(=O)(=O)Nc1ccc(-c2n[nH]c(Nc3cnc(OC)cn3)c2C(N)=O)cc1` [Compound 90, 3-(4-(ethylsulfonamido)phenyl)-5-((5-methoxypyrazin-2-yl)amino)-1H-pyrazole-4-carboxamide], the Kd in assay [1] was greater than 30 µM; in assay [2] it was less than 0.01 µM; in assay [3], greater than 30 µM.
Consider `CCS(=O)(=O)Nc1ccc(-c2n[nH]c(Nc3ccc(C(F)(F)F)cn3)c2C(N)=O)cc1` [Compound 93, 3-(4-(ethylsulfonamido)phenyl)-5-((5-(trifluoromethyl)pyridin-2-yl)amino)-1H-pyrazole-4-carboxamide], for which the results for the Kd in assay [1], in assay [2] and in assay [3] were greater than 30 µM, less than 0.01 µM and greater than 30 µM, respectively.
